From US7671062B2, “Modulators of chemokine receptor activity, crystalline forms and process” (Bristol-Myers Squibb Company, priority 2006, dated 2010)
Read-outs that look alike come from different tables or passages of the source.

Experiments:
[1] = Single-dose pharmacokinetics in monkeys; conditions: male, Cynomolgus, cynomolgus monkey
Description: The pharmacokinetics of various test compounds were evaluated in male Cynomolgus monkeys in a crossover-design. Monkeys were fasted overnight prior to PO dosing and fed 4 h post dose. […] Serial blood samples (˜0.3 mL) were collected from a femoral artery at 0.17 (IV only), 0.25, 0.5, 0.75, 1, 2, 4, 6, 8, and 24 h post dose, and centrifuged at 4° C. (1500-2000×g) to obtain plasma. Samples were stored at −20° C. until analysis by LC/MS/MS.
(§4) The pharmacokinetic parameters were obtained by non-compartmental analysis of plasma concentration vs. time data ([…] ™ software, Version 4.2, InnaPhase Corporation, Philadelphia, Pa.). The peak concentration (Cmax) and time for Cmax were recorded directly from experimental observations. The area under the curve from time zero to the last sampling time (AUC(0-T)) was calculated using a combination of linear and log trapezoidal summations. The total plasma clearance (CLTp), steady-state volume of distribution (Vss), apparent elimination half-life (T½) and mean residence time (MRT) were estimated after IV administration. […] The absolute oral bioavailability (F) was estimated as the ratio of dose-normalized AUC values following oral and IV doses.

[2] = Intradermal (ID) MCP-1 challenge model in Cynomolgus monkey; assay type: in vivo; design: PMN score / Eos score / Total cell score: scale not given here; conditions: both sexes, cynomolgus monkey, plasma, read-out: Free plasma conc
Description: (§1) Intradermal injection of MCP-1 results in the infiltration of mononuclear cells to the injection site. This model was initially developed to assess the inhibitory effect of CCR2 antagonists on the infiltration of mononuclear cells to the skin tissue injected with human MCP-1.
(§2) Immediately after dosing on Day 3, all animals received at least 2 intradermal injections of 10 μg (50 μL/injection ) of human MCP-1 (R & D Systems) and at least 2 intradermal injections of its DPBS control (50 μl/injection) at separate sites on the dorsal thorax. Dermal biopsies of all sites were obtained at approximately 18 hours following MCP-1 (or DPBS) challenge. Biopsies were processed for semi-quantitative histological evaluation. Representative sections of skin samples were examined by light microscopy, microscopic lesions and cellular infiltration were noted, and their incidences were tabulated.
(§3) For both studies, in addition to biopsy analysis, blood was collected and evaluated for complete blood counts and cell differentials. Also evaluated were plasma samples for compound concentrations, and serum samples for systemic inflammatory mediator levels.

[3] = test system: infiltration of mononuclear cells to the skin tissue injected with human MCP-1; assay: as above; assay type: in vivo; design: PMN score / Eos score / Total cell score: scale not given here; conditions: for inhibition of mononuclear cell infiltration: second study, naive monkeys
Description: as §1, §2, §3

CCR2 = CCR2 (Homo sapiens, UniProt P41597); assay: In vivo receptor occupancy in blood of hCCR2 KI mice, 48-hour TG peritonitis model (Gaddum equation); conditions: for Concentration of Mouse MCP-1 in plasma / Concentration of free Example 1 in plasma: 48-hour TG peritonitis; for % free CCR2 / % mouse MCP-1 bound CCR2 / % of Example 1-bound CCR2: Gaddum equation
[4] = test system: EAE, a model of multiple sclerosis; assay type: in vivo
[5] = target: Cyno CCR2 (Macaca fascicularis); assay: In vitro chemotaxis assay with L1.2 cells stably transfected with Cyno CCR2; assay type: cell-based, Cynomolgus monkey
Source text: The first employs monkey PBMC's while the second uses L1.2 cells stably transfected with Cyno CCR2.

[6] = target: human cardiac sodium channel SCN5A (Homo sapiens, UniProt Q14524); assay: Sodium channel patch clamp, HEK-293 cells; assay type: cell-based; conditions: read-out: Na+ channel patch clamp (% Inhib.)
Description: The compound was tested at a protein-free aqueous buffer. For determining steady state inhibition, sodium currents were elicited every 5 seconds using the following voltage protocol: cells were held at a potential of −90 mV and stepped to −20 mV for 60 ms. Effects were calculated by measuring inhibition of peak current during the test pulse to −20 mV. Rate-dependence of inhibition was assessed by stimulation at frequencies of 1 Hz and 4 Hz.

hERG [7] = target: T1, hERG (Homo sapiens, UniProt Q12809); assay: hERG flux (Tl+ flux, FLIPR) in HEK293 cells; assay type: cell-based; design: expressed in transfected cells; host or cells: HEK293
Description: HEK293 cells stably-expressing hERG channels were grown (37° C., 5% CO2) in Dulbecco's Modified Eagle's Media supplemented with 10% Sigma fetal bovine serum, non-essential amino acids, 2 mM L-glutamine and 500 μg/ml G418, at incubator.
A 2 mM stock of BTC-AM dye (Molecular Probes, Eugene, Oreg.) was prepared in 100% DMSO and then added 1:1 to 10% (w/v) pluronic acid in DMSO on the day of assay. The dye was then diluted in hERG external EP buffer (140 mM NaCl, 4.0 mM KCl, 1.8 mM CaCl2, 1.0 mM MgCl2, 10 mM HEPES, pH 7.3 and 10 mM glucose; all buffer components obtained from Sigma Chemical). This BTC dye mixture (30 μl) was added to the cells and produced a final loading concentration of 2.5 μM. Cells are incubated at 21° C. for 45 minutes.
Test compounds were diluted to 10 mM DMSO in 60 μl. […] Assay-ready plates were generated by stamping 2.5 μl from the DMSO serially diluted plate, which was prepared on the Velocity 11 BioCel. Aqueous plates were created by adding 48 μl of EP buffer and then were diluted 30-45 minutes before the assay was read on the FLIPR. […] Assay-ready aqueous plates were prepared and diluted on a Cybio liquid handler.
Cells loaded with dye were read on the FLIPR384 (Molecular Devices, Sunnyvale, Calif.), which excites the dye using the 488 nm line of an argon laser. […]
The dynamic range of the assay was determined from blanks and totals wells. […]

[8] = test system: monocyte/macrophage infiltration into peritoneal cavity; assay: 48-hour thioglycollate (TG)-induced peritonitis model in hCCR2 KI mouse; assay type: in vivo, hCCR2 KI mice; conditions: for % inhibition of monocyte/macrophage infiltration: FACS-based analysis of total monocyte/macrophages, 48 h; for EC50: Mus musculus, two separate studies, estimated, read-out: average EC50 for inhibition of monocyte/macrophage infiltration; for inhibition of monocyte/macrophage infiltration: flow cytometry (F4/80, Ly6C)
Description: The hCCR2 KI mice (C57BL/6-SVJ129) were injected intraperitoneally with 1 ml of thioglycollate (TG) (Hardy Diagnostics). For each study, eight male mice per group were used. […] The vehicle used was 0.01 N HCl in water. Forty-eight hours post TG injection, peritoneal lavages were performed by injecting 5 ml PBS/10 mM EDTA/10% BSA into the peritoneal cavity.
Cytospins were performed to determine differential leukocyte counts. The cells were stained for 3 minutes with Wright-Giemsa Stain (Sigma-Aldrich) and then rinsed with deionized water for 5 minutes. Differential counts were calculated based on a total of 200 cells counted per sample.

hERG [9] = target: T1, hERG; assay: hERG patch clamp, HEK-293 cells; conditions: pH 7.4
[10] = Single-dose pharmacokinetics in rats; conditions: rat
Description: Male Sprague-Dawley rats (250-300 g) were used for the pharmacokinetic studies. Rats were fasted overnight prior to PO dosing and fed 4 h post dose. Blood samples (˜0.3 mL) were collected from the jugular vein into K2EDTA-containing tubes and then centrifuged at 4° C. (1500-2000×g) to obtain plasma. […] Serial blood samples were obtained at 0.17 (for IV only), 0.25, 0.5, 0.75, 1, 2, 4, 6, 8, and 24 h post dose. Plasma samples, obtained by centrifugation at 4° C. (1500-2000×g), were stored at −20° C. until analysis by LC/MS/MS.
as §4

Sequence of CCR2 (P41597 whole entry): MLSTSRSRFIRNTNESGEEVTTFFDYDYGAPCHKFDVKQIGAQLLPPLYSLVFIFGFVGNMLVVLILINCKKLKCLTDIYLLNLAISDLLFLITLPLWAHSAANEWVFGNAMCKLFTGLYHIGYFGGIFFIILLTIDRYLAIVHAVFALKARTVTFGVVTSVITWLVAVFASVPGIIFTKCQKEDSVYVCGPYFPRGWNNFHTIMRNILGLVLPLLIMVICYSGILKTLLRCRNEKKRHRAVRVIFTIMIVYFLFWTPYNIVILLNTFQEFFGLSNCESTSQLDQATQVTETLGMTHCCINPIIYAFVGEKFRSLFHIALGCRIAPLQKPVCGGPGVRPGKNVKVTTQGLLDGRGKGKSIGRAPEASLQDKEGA
T1 sequence (Q12809 whole entry): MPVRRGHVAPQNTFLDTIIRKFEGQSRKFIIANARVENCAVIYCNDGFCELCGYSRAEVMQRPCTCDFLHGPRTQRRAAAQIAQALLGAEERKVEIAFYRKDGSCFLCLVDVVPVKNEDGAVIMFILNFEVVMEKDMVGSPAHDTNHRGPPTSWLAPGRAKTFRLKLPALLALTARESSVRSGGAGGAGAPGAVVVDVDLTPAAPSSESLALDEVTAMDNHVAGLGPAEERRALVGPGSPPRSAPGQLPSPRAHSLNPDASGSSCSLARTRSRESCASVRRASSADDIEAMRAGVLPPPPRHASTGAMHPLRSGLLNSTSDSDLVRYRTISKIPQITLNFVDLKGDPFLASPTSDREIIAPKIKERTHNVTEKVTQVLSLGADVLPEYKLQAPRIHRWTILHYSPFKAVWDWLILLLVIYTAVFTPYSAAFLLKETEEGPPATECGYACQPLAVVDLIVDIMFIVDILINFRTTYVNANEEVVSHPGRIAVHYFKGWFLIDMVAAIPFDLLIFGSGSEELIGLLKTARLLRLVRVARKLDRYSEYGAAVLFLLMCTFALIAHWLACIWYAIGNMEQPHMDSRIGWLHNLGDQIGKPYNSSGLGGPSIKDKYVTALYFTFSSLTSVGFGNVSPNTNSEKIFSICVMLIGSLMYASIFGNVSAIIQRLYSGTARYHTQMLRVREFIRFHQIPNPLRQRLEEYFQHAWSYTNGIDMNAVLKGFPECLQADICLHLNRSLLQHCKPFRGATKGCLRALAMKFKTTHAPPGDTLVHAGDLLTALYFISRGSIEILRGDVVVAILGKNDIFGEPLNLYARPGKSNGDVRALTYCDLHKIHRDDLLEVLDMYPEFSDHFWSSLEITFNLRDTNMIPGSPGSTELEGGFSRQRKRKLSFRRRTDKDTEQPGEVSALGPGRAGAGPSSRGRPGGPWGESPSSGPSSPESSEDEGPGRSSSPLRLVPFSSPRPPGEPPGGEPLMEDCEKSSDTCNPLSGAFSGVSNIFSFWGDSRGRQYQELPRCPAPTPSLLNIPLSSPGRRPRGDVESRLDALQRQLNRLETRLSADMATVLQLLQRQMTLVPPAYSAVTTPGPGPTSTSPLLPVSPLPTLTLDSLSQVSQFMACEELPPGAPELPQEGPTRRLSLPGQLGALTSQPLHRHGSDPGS
Sequence of human cardiac sodium channel SCN5A (Q14524 whole entry): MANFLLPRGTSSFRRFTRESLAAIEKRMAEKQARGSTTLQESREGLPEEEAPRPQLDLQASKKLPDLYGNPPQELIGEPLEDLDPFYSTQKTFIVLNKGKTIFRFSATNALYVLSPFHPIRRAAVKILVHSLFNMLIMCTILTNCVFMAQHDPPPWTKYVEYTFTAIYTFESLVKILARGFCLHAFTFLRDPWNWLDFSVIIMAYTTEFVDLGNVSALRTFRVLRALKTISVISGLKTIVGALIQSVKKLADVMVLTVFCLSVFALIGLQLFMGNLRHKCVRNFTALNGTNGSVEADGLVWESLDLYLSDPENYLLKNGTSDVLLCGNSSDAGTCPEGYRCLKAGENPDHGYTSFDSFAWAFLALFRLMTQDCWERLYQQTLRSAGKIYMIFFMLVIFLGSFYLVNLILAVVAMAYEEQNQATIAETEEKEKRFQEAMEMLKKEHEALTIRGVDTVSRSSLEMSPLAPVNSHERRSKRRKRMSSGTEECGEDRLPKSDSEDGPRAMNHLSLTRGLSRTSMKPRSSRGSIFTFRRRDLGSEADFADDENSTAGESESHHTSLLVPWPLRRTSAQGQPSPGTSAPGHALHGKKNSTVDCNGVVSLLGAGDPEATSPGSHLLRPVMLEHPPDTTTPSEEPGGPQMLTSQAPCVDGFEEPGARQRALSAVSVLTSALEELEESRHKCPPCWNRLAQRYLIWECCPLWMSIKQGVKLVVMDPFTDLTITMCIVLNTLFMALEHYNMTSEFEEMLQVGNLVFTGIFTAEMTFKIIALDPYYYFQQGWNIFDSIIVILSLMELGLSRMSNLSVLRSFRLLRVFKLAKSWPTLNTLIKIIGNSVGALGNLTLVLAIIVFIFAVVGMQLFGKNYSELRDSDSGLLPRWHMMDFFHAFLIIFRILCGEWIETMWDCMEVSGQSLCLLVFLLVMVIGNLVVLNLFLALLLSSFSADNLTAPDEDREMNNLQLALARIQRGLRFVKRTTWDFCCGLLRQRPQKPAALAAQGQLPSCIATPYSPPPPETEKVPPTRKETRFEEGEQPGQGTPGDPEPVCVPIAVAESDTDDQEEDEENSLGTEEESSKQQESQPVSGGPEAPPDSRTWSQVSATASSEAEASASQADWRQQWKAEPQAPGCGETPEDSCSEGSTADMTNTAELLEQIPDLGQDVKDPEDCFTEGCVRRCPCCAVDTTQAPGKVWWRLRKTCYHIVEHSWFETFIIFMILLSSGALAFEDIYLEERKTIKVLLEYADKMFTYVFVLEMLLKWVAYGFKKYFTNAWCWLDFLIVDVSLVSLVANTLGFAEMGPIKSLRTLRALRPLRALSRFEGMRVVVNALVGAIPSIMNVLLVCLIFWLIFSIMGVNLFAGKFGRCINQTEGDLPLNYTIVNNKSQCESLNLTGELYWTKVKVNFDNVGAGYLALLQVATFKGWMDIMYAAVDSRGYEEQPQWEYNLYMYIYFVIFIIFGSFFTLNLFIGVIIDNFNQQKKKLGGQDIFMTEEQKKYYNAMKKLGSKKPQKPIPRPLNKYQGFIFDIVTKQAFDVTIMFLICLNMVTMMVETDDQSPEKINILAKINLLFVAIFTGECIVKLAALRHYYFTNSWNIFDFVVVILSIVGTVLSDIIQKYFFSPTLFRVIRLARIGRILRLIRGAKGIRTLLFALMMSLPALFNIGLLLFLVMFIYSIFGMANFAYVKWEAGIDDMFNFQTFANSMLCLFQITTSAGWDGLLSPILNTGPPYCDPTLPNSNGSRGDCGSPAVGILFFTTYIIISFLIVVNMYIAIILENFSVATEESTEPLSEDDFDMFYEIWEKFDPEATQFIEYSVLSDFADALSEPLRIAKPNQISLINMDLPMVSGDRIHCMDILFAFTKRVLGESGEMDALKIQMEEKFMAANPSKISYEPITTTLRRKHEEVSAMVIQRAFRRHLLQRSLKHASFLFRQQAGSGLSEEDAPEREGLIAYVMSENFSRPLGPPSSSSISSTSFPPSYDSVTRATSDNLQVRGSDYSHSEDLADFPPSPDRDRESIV
Sequence of Cyno CCR2 (Macaca fascicularis) (Z9BGH1DMK8 1-374): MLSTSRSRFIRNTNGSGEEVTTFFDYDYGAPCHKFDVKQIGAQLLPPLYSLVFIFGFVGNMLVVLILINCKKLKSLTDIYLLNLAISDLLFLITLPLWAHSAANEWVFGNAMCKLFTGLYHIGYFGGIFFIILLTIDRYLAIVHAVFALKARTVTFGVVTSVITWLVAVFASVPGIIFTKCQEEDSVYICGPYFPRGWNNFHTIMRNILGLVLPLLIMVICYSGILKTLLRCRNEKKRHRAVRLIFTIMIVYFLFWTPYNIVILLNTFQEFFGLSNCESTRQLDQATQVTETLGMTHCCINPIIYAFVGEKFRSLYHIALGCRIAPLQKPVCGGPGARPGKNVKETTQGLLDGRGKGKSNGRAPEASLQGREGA

## CC(=O)N[C@@H]1C[C@H](N(C)C(C)C)CC[C@@H]1N1CC[C@H](Nc2ncnc3ccc(C(F)(F)F)cc23)C1=O [Example 1, N-((1R,2S,5R)-5-(isopropyl(methyl)amino)-2-((S)-2-oxo-3-(6-(trifluoromethyl)quinazolin-4-ylamino)pyrrolidin-1-yl)cyclohexyl)acetamide]
[1]; in vivo, po, 1.3 mg/kg
  bioavailability: 47%
[1]; plasma, iv, 1 mg/kg
  clearance: 23 mL/min/kg
[1]; plasma, po, 1.3 mg/kg
  AUC: 0.836 µM·h
[2]; 6.5 mg/kg once daily for 3 days, Study 1, 6.5 mg/kg oral once daily 3 days, 18 hours
  concentration at 18 h: 53 nM
[2]; 13 mg/kg once daily for 3 days, Study 1, 13 mg/kg oral once daily 3 days, 18 hours
  concentration at 18 h: 101 nM
[2]; 26 mg/kg once daily for 3 days, Study 1, 26 mg/kg oral once daily 3 days, 18 hours
  concentration at 18 h: 238 nM
[2]; Study 2 (naive monkeys), 10 mg/kg oral once daily 3 days
  concentration at 18 h: 34 nM
[2]; Study 2 (naive monkeys), 30 mg/kg oral once daily 3 days
  concentration at 18 h: 83 nM
[3]; Study 1, 6.5 mg/kg
  Eos score: 1.3 ± 0.8
  MNC score (inh %): (19%)
  PMN score: 0.8 ± 0.3
  Total cell score: 4.3 ± 1.6
[3]; Study 1, 6.5 mg/kg, scale of 0 to 4
  MNC score: 2.2 ± 0.6
[3]; Study 1, 13 mg/kg
  Eos score: 1.2 ± 0.6
  MNC score (inh %): (19%)
  PMN score: 0.7 ± 0.3
  Total cell score: 4.0 ± 0.5
[3]; Study 1, 13 mg/kg, scale of 0 to 4
  MNC score: 2.2 ± 0.3
[3]; Study 1, 26 mg/kg
  Eos score: 0.5 ± 0^
  MNC score (inh %): (56%)
  PMN score: 0.2 ± 0.3
  Total cell score: 1.8 ± 0.8
[3]; Study 1, 26 mg/kg, scale of 0 to 4
  MNC score: 1.2 ± 0.6
[3]; Study 2, 10 mg/kg
  Eos score: 0.3 ± 0.1
  MNC score: 0.2 ± 0.2
  MNC score (inh %): (87%)
  PMN score: 0
  Total cell score: 0.5 ± 0.2
[3]; Study 2, 30 mg/kg
  Eos score: 0.6 ± 0.7
  MNC score: 0.1 ± 0.3
  MNC score (inh %): (91%)
  PMN score: 0.1 ± 0.3
  Total cell score: 0.8 ± 0.8
[3]; first study
  infiltration of other cells types such as eosinophils and neutrophils: inhibited the infiltration
[3]; first study, 26 mg/kg oral once daily for three days, biopsy 18 hours after MCP-1
  inhibition of MCP-1 induced infiltration of mononuclear cells to the skin: 56%
[3]; first study, 13 and 6.5 mg/kg
  inhibition of MCP-1 induced infiltration of mononuclear cells to the skin: lower levels of inhibition
[3]; 10 mg/kg
  inhibition of mononuclear cell infiltration: 87%
[3]; 30 mg/kg
  inhibition of mononuclear cell infiltration: 91%
CCR2; 1 mg/kg oral BID
  Concentration of Mouse MCP-1 in plasma: 0.027 nM
  Concentration of free Example 1 in plasma: 1 nM
CCR2; 1 mg/kg
  % free CCR2: 53.7%
  % mouse MCP-1 bound CCR2: 1.6%
  % of Example 1-bound CCR2: 44.7%
CCR2; 5 mg/kg oral BID
  Concentration of Mouse MCP-1 in plasma: 0.043 nM
  Concentration of free Example 1 in plasma: 4 nM
CCR2; 5 mg/kg
  % free CCR2: 22.8%
  % mouse MCP-1 bound CCR2: 1.1%
  % of Example 1-bound CCR2: 76.1%
CCR2; 25 mg/kg oral BID
  Concentration of Mouse MCP-1 in plasma: 0.041 nM
  Concentration of free Example 1 in plasma: 24 nM
CCR2; 25 mg/kg
  % free CCR2: 4.8%
  % mouse MCP-1 bound CCR2: 0.2%
  % of Example 1-bound CCR2: 95.0%
[4]; 55 mg/kg BID oral from day 1, two of the three studies, p<0.05
  clinical score: significantly reduced the clinical score
[4]; Day 22, versus vehicle
  total inflammatory cellular infiltrate, histological evaluation of the spinal cord: did not demonstrate a significant difference
[5]
  IC50: 11.4 ± 8 nM
[6]; HEK-293 cells expressing human cardiac sodium channel SCN5A, 10,000 nM
  inhibition at 10000 nM: 17%
[6]; HEK-293 cells expressing human cardiac sodium channel SCN5A, 30,000 nM
  inhibition at 30000 nM: 19%
hERG [7]
  IC50: > 80000 nM
[8]; 1 mg/kg
  % inhibition of monocyte/macrophage infiltration: 38%
[8]; 5 mg/kg
  % inhibition of monocyte/macrophage infiltration: 71%
[8]; 25 mg/kg
  % inhibition of monocyte/macrophage infiltration: 86%
[8]; 1, 5, or 25 mg/kg BID oral, 48 hours post TG
  number of total peritoneal leukocytes obtained by cell counter: dose-dependent reduction
[8]; differential leukocyte counts
  EC50: 3 ± 0.9 nM
[8]; flow cytometry
  EC50: 2.2 ± 0.5 nM
[8]; differential leukocyte counts, 1 mg/kg BID
  inhibition of monocyte/macrophage influx: 20%
[8]; differential leukocyte counts, 5 mg/kg BID
  inhibition of monocyte/macrophage influx: 62%
[8]; differential leukocyte counts, 25 mg/kg BID
  inhibition of monocyte/macrophage influx: 69%
[8]; 1 mg/kg BID
  inhibition of monocyte/macrophage infiltration: 38%
[8]; 5 mg/kg BID
  inhibition of monocyte/macrophage infiltration: 71%
[8]; 25 mg/kg BID
  inhibition of monocyte/macrophage infiltration: 86%
hERG [9]
  inhibition at 10000 nM: 33%
  inhibition at 30000 nM: 61%
[10]; male, Sprague-Dawley, plasma, po, 10 mg/kg
  AUC: 3.79 µM·h
[10]; IV, dose IV/PO mg/kg: 2k 2.5/25, 8a 6/72, 9c 4/43, Example 1 2/10
  Cl: 43 mL/min/kg
[10]; dose IV/PO mg/kg: 2k 2.5/25, 8a 6/72, 9c 4/43, Example 1 2/10
  F %: 51%
